Measured values reported in patent US12545699B2, “Bivalent LECA inhibitors targeting biofilm formation of Pseudomonas aeruginosa” (HELMHOLTZ-ZENTRUM FÜR INFEKTIONSFORSCHUNG GMBH, priority 2019, dated 2026).

Legend:
LecA [1] = target: T1, LecA (Pseudomonas aeruginosa, UniProt Q05097); assay: isothermal titration microcalorimetry (ITC); format: binding; conditions: ITC Kd, Table 1; TBS/Ca2+ buffer, 25° C.
T1 construct: made in house
Procedure: Expression and purification of LecA as well as competitive binding by fluorescence polarization was performed as described by Joachim et al. (Org. Biomol. Chem. 2016). Microcalorimetry was performed using an ITC200 (GE Healthcare) at highest possible LecA concentration (typically 200-400 μM) in the cell and titration of ligand in the same buffer at 25° C.

LecA [2] = target: T1, LecA; assay: competitive binding assay based on fluorescence polarisation (FP); conditions: FP IC50, Table 1, 20 μM LecA
Procedure: Binding of ligands to LecA was evaluated in competitive assay based on fluorescence polarisation.

LecA [3] = target: T1, LecA; assay: surface plasmon resonance (SPR) direct binding to immobilised LecA
Procedure: All experiments were performed on a BIACORE X100 instrument (GE Healthcare) at 25° C. and a flow rate of 10 μL min^−1. […] LecA was dissolved in 10 mM sodium acetate pH 4.5 (100 μg mL^−1) and injected over the activated chip surface on channel 2 (contact time of 540 s) until the response of ˜4000 RU was reached. Excess free amine groups were capped with an injection of 1 M ethanolamine (contact time 540 s). Bivalent compounds were dissolved in 100% DMSO and subsequently diluted to required concentrations in a running buffer (10 mM phosphate buffer pH 7.4, 2.7 mM KCl, 137 mM NaCl, 100 μM CaCl2, 0.05% Tween 20, 5% DMSO). The bivalent analytes were subjected to single-cycle kinetics analyses (contact time of 120 s and dissociation time of 120 s) consisting of injections of the analytes at 0, 10, 50, 100, and 200 nM over the immobilised-LecA. The chip surface was regenerated by 5× injections of 100 μM 4-nitrophenyl-β-D-galactose (contact time of 120 s). KD determination was performed using BIACORE X100 evaluation software (version 2.0) by applying 1:1 binding model to fit the experimental data. • [1] H. E. Gottlieb, V. Kotlyar, A. Nudelman, J. Org. Chem. 1997, 62, 7512-7515. • [2] M. Seligman, J. Biol. Chem. 1952, 195, 239-249. • [3] S. T. Xue, W. Y. He, L. L. Ma, H. Q. Wang, B. Wang, G. H. Zheng, X. Y. Ji, T. Zhang, Y. H. Li, J. D. Jiang, et al., Molecules 2013, 18, 3789-3805. • [4] Y. Li, H. Mo, G. Lian, B. Yu, Carbohydr. Res. 2012, 363, 14-22. • [5] F. Yang, F. Xie, Y. Zhang, Y. Xia, W. Liu, F. Jiang, C. Lam, Y. Qiao, D. Xie, J. Li, et al., Bioorganic Med. Chem. Lett. 2017, 27, 2166-2170. Synthesis Schemes and Results of Biophysical Assays

T1 sequence (Q05097 whole entry): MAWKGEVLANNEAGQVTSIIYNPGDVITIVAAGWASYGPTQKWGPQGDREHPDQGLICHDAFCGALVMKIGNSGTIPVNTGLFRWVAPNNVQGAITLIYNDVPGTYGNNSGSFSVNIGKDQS

`COc1ccc(C=NNC(=O)c2cccc(OC3OC(CO)C(O)C(O)C3O)c2)cc1` (stereo not drawn) [Compound F6m] gave a Kd (LecA [1]) of 2.4 ± 1.33 µM, an IC50 (LecA [2]; 10 nM reporter ligand 8, TBS/Ca2+ buffer with 25% DMSO (**)) of 21.6 ± 4.5 µM and a Kd (LecA [3]) of 4.9 ± 0.1 µM.
`COc1ccc(C=NNC(=O)c2ccc(OC3OC(CO)C(O)C(O)C3O)cc2)cc1` (stereo not drawn) [Compound F6p] was tested, and the Kd (LecA [1]) was 6.11 ± 0.48 µM, the IC50 (LecA [2]; 10 nM reporter ligand 8, TBS/Ca2+ buffer with 4% DMSO (*)) was 23.1 µM and the Kd (LecA [3]) was 4.8 ± 2.1 µM.
